Measurements reported in patent US20070231320A1, “Eggs having increased antibody titer and methods for making same” (priority 2006, published 2007).

Legend:
Assay type in all cases: in vivo, Hyline-98 leghorn hens
[1] = tested on: anti-PLA2 antibody titer in egg yolk; assay: Egg yolk anti-PLA2 antibody titer by ELISA, second trial: indomethacin or aspirin in feed for 24 h before antigen; conditions: for anti-PLA2 antibody titer in eggs vs control hens / presence of anti-PLA2 antibodies in eggs: FIG. 2, 50 mg indomethacin/kg diet or 1 g aspirin/kg diet for 24 h before PLA2 injection; for anti-PLA2 antibody titer in eggs vs control hens: 35 and 42 days after exposure; for presence of anti-PLA2 antibodies in eggs: 21 days after exposure
Description: (§1) Eggs were cracked and the yolks and albumin were separated. The antibodies were extracted by a 1:10 dilution of yolk in acidified PBS (pH 5.0) for twelve hours. Antibody titer was assayed by enzyme-linked immunosorbent assay (ELISA) at twenty-eight, thirty-five and forty-two days after exposure to the antigen. Optical density was measured at 450 nm using an HRP enzyme reaction to detect antibody. A standard on each plate was defined as a “positive reaction,” which is defined as twice the optical density of an egg yolk diluted 1:2000 from a hen not immunized against the antigen.
In a second set of trials, the hens were divided at 300 days of age into three treatment groups. For twenty-four hours after the groups were established, a control group (n=6) was fed standard breeder's mash, a first test group (n=6) was fed standard breeder's mash supplemented with 50 mg of indomethacin/kg diet, and a second test group (n=6) was fed standard breeder's mash supplemented with 1 g aspirin/kg diet. After twenty-four hours, the three groups were injected at the four sites with 1 ml total of 3 mg PLA2/ml of CFA and PBS in a 50/50 mixture. Booster injections were given as described above.
Antibody titer was determined as in the first trial at twenty-one, twenty-eight, thirty-five and forty-two days after exposure to the antigen.

[2] = tested on: anti-PLA2 antibody titer in egg yolk; assay: Egg yolk anti-PLA2 antibody titer by ELISA, third trial: indomethacin or aspirin in feed from day 14 after antigen; conditions: FIG. 3, inhibitor in feed from day 14 after PLA2 injection; for presence of anti-PLA2 antibodies in eggs: 21 days after exposure
Description: as §1
In a third set of experiments, the hens were divided at 245 days of age into three treatment groups. On day one, the three groups were injected at the four sites with 1 ml total of 3 mg PLA2/ml of CFA and PBS in a 50/50 mixture. A control group (n=8) was fed standard breeder's mash for the entire trial. Starting on day fourteen after exposure to the antigen, a first test group (n=8) was fed standard breeder's mash supplemented with 50 mg of indomethacin/kg diet and a second test group (n=8) was fed standard breeder's mash supplemented with 1 g aspirin/kg diet.
Antibody titer was determined as in the first two trials at twenty-one, twenty-eight and sixty-three days after the injection of PLA2.

[3] = tested on: anti-PLA2 antibody titer in egg yolk; assay: Egg yolk anti-PLA2 antibody titer by ELISA, first trial: COX inhibitor in feed for 24 h before antigen; conditions: 50 mg indomethacin/kg diet for 24 h before PLA2 injection
Description: Hyline-98 leghorn hens were randomly assigned to treatment groups and given free access to standard breeder's mash and water. In a first set of trials, the hens were divided at 245 days of age into two treatment groups. For twenty four hours after the groups were established, a control group (n=6) was fed standard breeder's mash and a test group (n=6) was fed standard breeder's mash supplemented with 50 mg of indomethacin/ kg diet. After twenty four hours, both groups were injected intramuscularly (i.m.) at four sites (each breast muscle and each leg muscle) with 1 ml total of 3 mg PLA2/ml of complete Freund's adjuvant (CFA; Sigma, St. Louis, Mo.) and phosphate buffered saline (PBS) in a 50/50 mixture. Hens were given an i.m. booster injection over the four sites seven days after initial injection with 1 ml total of a 3 mg PLA2/ml of incomplete Freund's adjuvant (IFA; Sigma) and PBS in a 50/50 mixture.
as §1

Row | SMILES | anti-PLA2 antibody titer of eggs relative to eggs from control hens ([1]; 1 g aspirin/kg diet for 24 h before PLA2 injection, 42 days after exposure) | effectiveness at increasing antibody titer, aspirin compared with indomethacin ([1]; 1 g aspirin/kg diet vs 50 mg indomethacin/kg diet for 24 h before PLA2 injection) | anti-PLA2 antibody titer in eggs vs control hens [1] | presence of anti-PLA2 antibodies in eggs [1] | anti-PLA2 antibody titer in eggs compared to control ([2]; 21 and 28 days after exposure) | presence of anti-PLA2 antibodies in eggs [2] | anti-PLA2 antibody titer in eggs compared to control ([2]; 63 days after exposure) | anti-PLA2 antibody titer of eggs relative to eggs from control hens ([3]; 42 days after exposure) | anti-PLA2 antibody titer in eggs vs control hens ([3]; FIG. 1, 28, 35 and 42 days after exposure) | presence of antigen-specific anti-PLA2 antibodies in eggs ([3]; FIG. 1, by 28 days after exposure)
1 | CC(=O)Oc1ccccc1C(=O)O [aspirin] | nearly three times | more effective | significantly increased | had anti-PLA2 antibodies | not significantly different | contained anti-PLA2 antibodies | control group had a higher antibody titer | – | – | –
2 | COc1ccc2c(c1)c(CC(=O)O)c(C)n2C(=O)c1ccc(Cl)cc1 [indomethacin] | – | – | significantly increased | had anti-PLA2 antibodies | not significantly different | contained anti-PLA2 antibodies | control group had a higher antibody titer | nearly triple | significantly increased | contained antigen-specific anti-PLA2 antibodies
